According to US6903086B2, “Alkoxycarbonylamino benzoic acid or alkoxycarbonylamino tetrazolyl phenyl derivatives as IP antagonists” (SYNTEX (U.S.A.) LLC, priority 2001, dated 2005):

Row | SMILES | melting point
1 | N#Cc1cccc(NC(=O)OCc2cc3cc(-c4ccc(F)cc4)ccc3o2)c1C(=O)O [compound 33, 2-cyano-6-[5-(4-fluoro-phenyl)-benzofuran-2-ylmethoxycarbonylamino]-benzoic acid] | 150 °C (dec.)
2 | Cc1ccc(NC(=O)OCc2cc3cc(-c4ccc(F)cc4)ccc3o2)c(C(=O)O)c1 [compound 28, 2-[5-(4-fluoro-phenyl)-benzofuran-2-ylmethoxycarbonylamino]-5-methyl-benzoic acid] | 190.8 to 191.9 °C
3 | O=C(Nc1c(Cl)cc(Cl)cc1C(=O)O)OCc1cc2cc(-c3ccc(F)cc3)ccc2o1 [compound 22, 3,5-dichloro-2-[5-(4-fluoro-phenyl)-benzofuran-2-ylmethoxycarbonylamino]-benzoic acid] | 177.7 to 178.5 °C
4 | O=C(Nc1ccc(-c2ccsc2)cc1C(=O)O)OCc1cc2cc(-c3ccccc3)ccc2o1 [compound 13, 2-(5-phenyl-benzofuran-2-ylmethoxycarbonylamino)-5-thiophen-3-yl-benzoic acid] | 229.5 to 230 °C
5 | O=C(Nc1ccccc1C(=O)O)OCc1cc2cc(-c3ccccc3)ccc2o1 [compound 17, 2-(5-phenyl-benzofuran-2-ylmethoxycarbonylamino)-benzoic acid] | 203.6 to 203.8 °C
6 | O=C(Nc1cc2ccccc2cc1C(=O)O)OCc1cc2cc(-c3ccccc3)ccc2o1 [compound 18, 3-(5-phenyl-benzofuran-2-ylmethoxycarbonylamino)-naphthalene-2-carboxylic acid] | 225.6 to 225.8 °C
7 | O=C(Nc1ccc(Br)cc1C(=O)O)OCc1cc2cc(-c3ccccc3)ccc2o1 [compound 19, 5-bromo-2-(5-phenyl-benzofuran-2-ylmethoxycarbonylamino)-benzoic acid] | 221.2 to 222 °C
8 | COc1cccc(NC(=O)OCc2cc3cc(-c4ccc(F)cc4)ccc3o2)c1C(=O)O [compound 29, 2-[5-(4-fluoro-phenyl)-benzofuran-2-ylmethoxycarbonylamino]-6-methoxy-benzoic acid] | 160.5 to 164.3 °C
9 | O=C(Nc1ccc(-c2cccnc2)cc1C(=O)O)OCc1cc2cc(-c3ccc(F)cc3)ccc2o1 [compound 16, 2-[5-(4-fluoro-phenyl)-benzofuran-2-ylmethoxycarbonylamino]-5-pyridin-3-yl-benzoic acid] | 225.7 to 229.3 °C
10 | O=C(Nc1ccc(Br)cc1C(=O)O)OCc1cc2cc(-c3ccc(F)cc3)ccc2o1 [compound 26, 5-bromo-2-[5-(4-fluoro-phenyl)-benzofuran-2-ylmethoxycarbonylamino]-benzoic acid] | 220.3 to 220.6 °C
11 | Cc1cccc(NC(=O)OCc2cc3cc(-c4ccc(F)cc4)ccc3o2)c1C(=O)O [compound 27, 2-[5-(4-fluoro-phenyl)-benzofuran-2-ylmethoxycarbonylamino]-6-methyl-benzoic acid] | 176.1 to 178.8 °C
12 | O=C(Nc1ccc(-c2ccccc2)cc1C(=O)O)OCc1cc2cc(-c3ccccc3)ccc2o1 [compound 10, 4-(5-phenyl-benzofuran-2-ylmethoxycarbonylamino)-biphenyl-3-carboxylic acid] | 225.9 to 226.2 °C
13 | CS(=O)(=O)c1ccc(NC(=O)OCc2cc3cc(-c4ccccc4)ccc3o2)c(C(=O)O)c1 [compound 20, 5-methanesulfonyl-2-(5-phenyl-benzofuran-2-ylmethoxycarbonylamino)-benzoic acid] | 234 to 235 °C
14 | O=C(Nc1cccc([N+](=O)[O-])c1C(=O)O)OCc1cc2cc(-c3ccc(F)cc3)ccc2o1 [compound 30, 2-[5-(4-fluoro-phenyl)-benzofuran-2-ylmethoxycarbonylamino]-6-nitro-benzoic acid] | 191.5 to 191.9 °C
15 | O=C(Nc1ccc(-c2ccc(F)cc2)cc1C(=O)O)OCc1cc2cc(-c3ccccc3)ccc2o1 [compound 12, 4′-fluoro-4-(5-phenyl-benzofuran-2-ylmethoxycarbonylamino)-biphenyl-3-carboxylic acid] | 229.4 to 229.6 °C
16 | O=C(Nc1ccc(-c2ccc(F)cc2)cc1C(=O)O)OCc1cc2cc(-c3ccsc3)ccc2o1 [compound 32, 4′-fluoro-4-(5-thiophen-3-yl-benzofuran-2-ylmethoxycarbonylamino)-biphenyl-3-carboxylic acid] | 213.2 to 215.1 °C
17 | O=C(Nc1ccc(F)cc1C(=O)O)OCc1cc2cc(-c3ccc(F)cc3)ccc2o1 [compound 23, 5-fluoro-2-[5-(4-fluoro-phenyl)-benzofuran-2-ylmethoxycarbonylamino]-benzoic acid] | 210 to 211.9 °C

More lines, now with the values ahead:

Row | melting point | SMILES
18 | 212 to 214.1 °C | O=C(Nc1cccc(Cl)c1C(=O)O)OCc1cc2cc(-c3cnccn3)ccc2o1 [compound 39, 2-chloro-6-(5-pyrazin-2-yl-benzofuran-2-ylmethoxycarbonylamino)-benzoic acid]
19 | 176.4 to 178.5 °C | Nc1cccc(NC(=O)OCc2cc3cc(-c4ccc(F)cc4)ccc3o2)c1C(=O)O [compound 701, 2-amino-6-[5-(4-fluorophenyl)benzofuran-2-ylmethoxycarbonylamino]benzoic acid]
20 | 234.5 to 235.6 °C | O=C(Nc1ccc(-c2ccccc2)cc1C(=O)O)OCc1ccc(-c2ccccc2)cc1 [compound 601, 4-(biphenyl-4-ylmethoxycarbonylamino)-biphenyl-3-carboxylic acid]
21 | 213.9 to 214.5 °C | Cc1cc(Br)ccc1NC(=O)OCc1cc2cc(-c3cccnc3)ccc2o1 [compound 41, (4-bromo-2-methyl-phenyl)-carbamic acid 5-pyridin-3-yl-benzofuran-2-ylmethyl ester]
22 | 169.5 to 170.9 °C | O=C(O)Cc1ccccc1NC(=O)OCc1cc2cc(-c3ccccc3)ccc2o1 [compound 42, [2-(5-phenyl-benzofuran-2-ylmethoxycarbonylamino)-phenyl]-acetic acid]
23 | 237.1 to 237.5 °C | O=C(Nc1ccc(-c2ccc(F)cc2)cc1C(=O)O)OCc1cc2cc(-c3cccnc3)ccc2o1 [compound 34, 4′-fluoro-4-(5-pyridin-3-yl-benzofuran-2-ylmethoxycarbonylamino)-biphenyl-3-carboxylic acid]
24 | 174.5 to 177.2 °C | O=C(Nc1ccc2ccccc2c1C(=O)O)OCc1cc2cc(-c3ccccc3)ccc2o1 [compound 201, 2-(5-phenyl-benzofuran-2-ylmethoxycarbonylamino)-naphthalene-1-carboxylic acid]
25 | 121 to 138 °C | O=C(Nc1ccc(Br)cc1-c1nnn[nH]1)OCc1cc2cc(-c3ccc(F)cc3)ccc2o1 [compound 504, [4-bromo-2-(1H-tetrazol-5-yl)-phenyl]-carbamic acid 5-(4-fluoro-phenyl)-benzofuran-2-ylmethyl ester]
26 | 121 to 125.2 °C | O=C(Nc1ccc(F)cc1-c1nnn[nH]1)OCc1cc2cc(-c3ccc(F)cc3)ccc2o1 [compound 506, [4-fluoro-2-(1H-tetrazol-5-yl)-phenyl]-carbamic acid 5-(4-fluoro-phenyl)-benzofuran-2-ylmethyl ester]
27 | 192.8 to 194.3 °C | O=C(Nc1cccc(Cl)c1C(=O)O)OCc1cc2cc(-c3cncnc3)ccc2o1 [compound 37, 2-chloro-6-(5-pyrimidin-5-yl-benzofuran-2-ylmethoxycarbonylamino)-benzoic acid]
28 | 157.5 to 158.9 °C | O=C(Nc1cccc(Cl)c1C(=O)O)OCCOc1ccc(-c2ccccc2)cc1 [compound 801, 2-[2-(biphenyl-4-yloxy)-ethoxycarbonylamino]-6-chloro-benzoic acid]
29 | 180 to 183 °C | O=C(Nc1ccc(-c2ccccc2)cc1-c1nnn[nH]1)OCc1cc2cc(-c3ccccc3)ccc2o1 [compound 501]
30 | 127.5 to 134 °C | O=C(Nc1ccc(-c2ccccc2)cc1-c1nnn[nH]1)OCc1cc2cc(-c3cc(Cl)cc(Cl)c3)ccc2o1 [compound 502, [3-(1H-tetrazol-5-yl)-biphenyl-4-yl]-carbamic acid 5-(3,5-dichloro-phenyl)-benzofuran-2-ylmethyl ester]
31 | 209 to 211 °C | O=C(Nc1ccc(-c2ccc(F)cc2)cc1-c1nnn[nH]1)OCc1cc2cc(-c3ccc(F)cc3)ccc2o1 [compound 505, [4′-fluoro-3-(1H-tetrazol-5-yl)-biphenyl-4-yl]-carbamic acid 5-(4-fluoro-phenyl)-benzofuran-2-ylmethyl ester]
32 | 155 to 158 °C | O=C(Nc1ccccc1-c1nnn[nH]1)OCc1cc2cc(-c3ccc(F)cc3)ccc2o1 [compound 503, [2-(1H-tetrazol-5-yl)-phenyl]-carbamic acid 5-(4-fluoro-phenyl)-benzofuran-2-ylmethyl ester]
33 | 195 to 196.5 °C | CC(C)Oc1ccc(NC(=O)OCc2cc3cc(-c4ccc(F)cc4)ccc3o2)c(C(=O)O)c1 [compound 301, 2-[5-(4-fluoro-phenyl)-benzofuran-2-ylmethoxycarbonylamino]-5-isopropoxy-benzoic acid]
34 | 204.5 to 205 °C | O=C(Nc1ccc2ccccc2c1C(=O)O)OCc1cc2cc(-c3ccc(F)cc3)ccc2o1 [compound 202, 2-[5-(4-fluoro-phenyl)-benzofuran-2-ylmethoxycarbonylamino]-naphthalene-1-carboxylic acid]
35 | 200.1 to 200.4 °C | Cc1ccc(NC(=O)OCc2cc3cc(-c4cccnc4)ccc3o2)c(C(=O)O)c1 [compound 35, 5-methyl-2-(5-pyridin-3-yl-benzofuran-2-ylmethoxycarbonylamino)-benzoic acid]
36 | 192 to 230 °C | O=C(Nc1ccc(-c2ccccc2)cc1-c1nnn[nH]1)OCc1cc2cc(-c3ccc(F)cc3)ccc2o1 [compound 509, [3-(1H-tetrazol-5-yl)-biphenyl-4-yl]-carbamic acid 5-(4-fluoro-phenyl)-benzofuran-2-ylmethyl ester]
37 | 172 to 174 °C | O=C(Nc1cccc(Cl)c1C(=O)O)OCc1cc2cc(-c3cccnc3)ccc2o1 [compound 36, 2-chloro-6-(5-pyridin-3-yl-benzofuran-2-ylmethoxycarbonylamino)-benzoic acid]
38 | 235.7 to 238.9 °C | O=C(Nc1cc(C(=O)O)cc(-c2ccccc2)c1)OCc1cc2cc(-c3ccccc3)ccc2o1 [compound 401, 5-(5-phenyl-benzofuran-2-ylmethoxycarbonylamino)-biphenyl-3-carboxylic acid]
